Source: patent US8541670B2, “Compositions and methods for inhibiting tumor cell growth” (priority 2007, dated 2013)
Where no end group is shown, it is not given here. red fluorescent dye = not defined here

Columns and labels:
N2a cells [1] = experiment: Trypan blue staining, live and dead cell count; type: cell-based
Source text: Therefore, in addition to capturing live images, cells were stained with trypan blue at different time intervals following treatment with ZaTa and counted by a light microscope using a hemocytometer.

N2a cells [2] = experiment: Neurite count and live imaging of N2a neurons; type: cell-based
Description: Accordingly, the stability and phenotypic consequences of the AKT-PKAc complex was also analyzed in cultured neurons. N2a cells were treated with vehicle, ZaTa or control peptide for 24 hours. Media was removed after the 24-hour treatment and an equal number of cells from each treatment group was either cultured for another 24 hours without treatment, or lysed and subjected to immunoprecipitation with an antibody against AKT. Those cells cultured for another 24 hours were also harvested and subjected to immunoprecipitation. In parallel, the number of individual neurons with neurites was counted. […] Live images of N2a neurons were captured following treatment with vehicle or ZaTa (2 or 5 μM). […] ZaTa-mediated changes included a progressive loss of neurites, inhibition of new neurite formation, loss of cell motility, as well as formation of large cell colonies.

Abl = target: T1, Abl (Mus musculus, UniProt P00520); experiment: In vivo selectivity, western blot of phosphorylated substrate after injection into one hemisphere; settings: versus DMSO hemisphere
T1 construct: from tissue; host or cells: mouse brain hemisphere (striatum injection)
T1 sequence (P00520 whole entry): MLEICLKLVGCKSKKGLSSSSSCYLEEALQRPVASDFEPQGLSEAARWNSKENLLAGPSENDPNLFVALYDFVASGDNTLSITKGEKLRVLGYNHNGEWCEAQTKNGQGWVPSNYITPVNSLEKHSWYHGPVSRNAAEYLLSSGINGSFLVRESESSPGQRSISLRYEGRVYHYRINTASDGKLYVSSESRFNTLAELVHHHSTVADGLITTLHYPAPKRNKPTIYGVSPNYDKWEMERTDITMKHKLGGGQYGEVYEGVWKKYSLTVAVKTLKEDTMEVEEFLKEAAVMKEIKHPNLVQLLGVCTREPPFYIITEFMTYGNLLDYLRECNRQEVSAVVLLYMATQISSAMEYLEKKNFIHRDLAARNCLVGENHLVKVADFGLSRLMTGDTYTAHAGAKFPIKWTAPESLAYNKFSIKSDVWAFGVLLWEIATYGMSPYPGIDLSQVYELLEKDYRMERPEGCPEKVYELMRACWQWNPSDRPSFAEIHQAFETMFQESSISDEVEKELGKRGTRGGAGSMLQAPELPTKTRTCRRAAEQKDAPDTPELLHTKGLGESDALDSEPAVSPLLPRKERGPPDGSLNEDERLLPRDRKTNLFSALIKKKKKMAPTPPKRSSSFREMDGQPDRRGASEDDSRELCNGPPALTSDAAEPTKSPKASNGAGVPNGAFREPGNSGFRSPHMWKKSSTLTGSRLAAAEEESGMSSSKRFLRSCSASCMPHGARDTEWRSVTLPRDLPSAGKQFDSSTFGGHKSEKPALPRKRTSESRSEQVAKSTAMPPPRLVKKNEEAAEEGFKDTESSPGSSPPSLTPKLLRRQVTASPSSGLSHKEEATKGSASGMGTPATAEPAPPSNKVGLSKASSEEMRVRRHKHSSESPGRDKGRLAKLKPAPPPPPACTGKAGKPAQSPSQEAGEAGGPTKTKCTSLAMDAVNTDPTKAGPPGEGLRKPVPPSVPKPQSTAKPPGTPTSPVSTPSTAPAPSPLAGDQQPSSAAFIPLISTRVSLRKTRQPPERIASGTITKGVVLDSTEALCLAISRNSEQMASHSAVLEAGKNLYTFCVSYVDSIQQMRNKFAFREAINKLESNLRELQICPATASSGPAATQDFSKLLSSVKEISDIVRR
Description: (§1) To analyze in vivo selectivity, ZaTa was injected into one hemisphere and DMSO in the other hemisphere, as above, and a series of western blot analyses was preformed with phospho-specific antibodies which recognize a phosphorylated substrate or each one of the kinases that ZaTa inhibited at higher concentrations in vitro. […] Given the high functional and structural homology between p70S6K and AKT, the in vivo inhibitory effect of ZaTa on p70S6K was contemplated. Furthermore, the in vivo effect of ZaTa on the phosphorylation levels of substrates for PKA, PKC, CDKs using phospho-specific antibodies recognizing the phosphorylated consensus sites of these kinases was analyzed. In contrast to the consistent decrease in phosphorylation of AKT substrates, significant changes in the phosphorylation level of PKA, PKC and CDKs substrates was not observed after in vivo injection of ZaTa.
(§2) Phosphorylation sites for kinases analyzed herein included Ser-235/236 S6 (a substrate for p70S6K), Tyr-207 CRKL (a substrate for Abl; Zipfel, et al. (2004) supra), Ser-241 PDK1 (a substrate for PI3K), Tyr-1022/1023 JAK1 (a substrate for JAK3; Wang, et al. (2003) supra), Ser-421 Huntingtin (a substrate for SGK; Rangone, et al. (2004) supra), Tyr-783 PLC (a substrate for TrkB; Middlemas, et al. (1994) supra), and Ser-338 cRaf (a substrate for PAK3; King, et al. (1998) supra).

p70S6K = target: T2, p70S6K (Mus musculus, UniProt Q8BSK8); experiment: as above; settings: versus DMSO hemisphere
T2 construct: from tissue; host or cells: mouse brain hemisphere
T2 sequence (Q8BSK8 whole entry): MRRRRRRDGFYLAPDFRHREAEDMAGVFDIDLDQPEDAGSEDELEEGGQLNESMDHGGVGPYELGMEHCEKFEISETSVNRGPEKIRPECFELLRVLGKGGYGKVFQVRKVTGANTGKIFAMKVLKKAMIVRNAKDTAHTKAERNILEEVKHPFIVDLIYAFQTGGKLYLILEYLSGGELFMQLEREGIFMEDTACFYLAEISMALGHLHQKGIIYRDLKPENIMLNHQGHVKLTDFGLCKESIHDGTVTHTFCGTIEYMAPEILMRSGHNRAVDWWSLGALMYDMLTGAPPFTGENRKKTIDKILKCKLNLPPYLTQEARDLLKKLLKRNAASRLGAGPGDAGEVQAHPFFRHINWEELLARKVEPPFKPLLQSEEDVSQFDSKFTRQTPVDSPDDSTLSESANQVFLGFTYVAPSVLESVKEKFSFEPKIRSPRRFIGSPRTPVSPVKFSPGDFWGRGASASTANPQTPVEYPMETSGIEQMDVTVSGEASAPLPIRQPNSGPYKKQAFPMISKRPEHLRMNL
Description: as §1, §2

[3] = test system: panel of 32 kinases (AKT2, AKT3, PKA, PKC, PI3K, SGK, PAK2, PAK3, SAPK2/p38, Abl, CaMKII, CDK1/cyclinB, CDK5/p35, CK1, CK2, CSK, GSK3, JNK1, MAPK1, p70S6K …); experiment: In vitro kinase selectivity panel of 32 kinases; type: biochemical; settings: at IC50 for AKT1 (0.1 μM)
Description: As a specific substrate, the phosphorylation level of GSK-3[…] at Ser-9 was also evaluated. […] The decrease was specific to the AKT phosphorylation site on GSK-3[…] at Ser-9, since a change in the phosphorylation level of GSK-3[…] at Tyr-216 or GSK-3[…] at Tyr-279 was not observed. Moreover, the in vivo reduction of the phosphorylation of AKT substrates was more obvious at the injection site, since a significant change in the phosphorylation of AKT substrates in the frontal cortex or cerebellum between the two hemispheres was not observed. […] To test the specificity/selectivity of ZaTa as the inhibitor of AKT1 versus the other major kinases, a series of in vitro kinase assays was performed at IC50 for AKT1 and at ten times higher concentrations. A panel of the following 32 kinases was first tested in vitro using the active form of each kinase and a specific substrate: AKT2, AKT3, PKA, PKC[…], PKC, PI3K[…], PI3K[…], PI3K, SGK, PAK2, PAK3, SAPK2/p38, Abl, CaMKII, CDK1/cyclinB, CDK5/p35, CK1, CK2, CSK, GSK3[…], GSK3[…], JNK1[…]1, MAPK1, p70S6K, PDGFR[…], PDGFR[…], PDK1, PKG1[…], TrkB, JAK2, JAK3, and Syk. […] However, at ten times higher concentration, ZaTa inhibited AKT2 (63%), PI3K[…] (72%), p70S6K (64%), SGK (73%), PAK3 (83%), JAK3 (79%), TrkB (84%), and Abl (42%). […]

TrkB = TrkB (Homo sapiens, UniProt Q16620); experiment: Cell-based kinase assay, phosphorylation of intracellular substrate (Tyr-783 PLC)
Description: As a specific substrate, the phosphorylation level of GSK-3[…] at Ser-9 was also evaluated. […] The decrease was specific to the AKT phosphorylation site on GSK-3[…] at Ser-9, since a change in the phosphorylation level of GSK-3[…] at Tyr-216 or GSK-3[…] at Tyr-279 was not observed. Moreover, the in vivo reduction of the phosphorylation of AKT substrates was more obvious at the injection site, since a significant change in the phosphorylation of AKT substrates in the frontal cortex or cerebellum between the two hemispheres was not observed. […] To test the specificity/selectivity of ZaTa as the inhibitor of AKT1 versus the other major kinases, a series of in vitro kinase assays was performed at IC50 for AKT1 and at ten times higher concentrations. […]
as §2

Substance | increase in the number of dead cells (N2a cells [1]; counted at time points from 12 to 72 hours) | number of live cells, trypan blue (N2a cells [1]; different time intervals) | morphology of N2a neurons, live images (N2a cells [2]; 2 or 5 μM) | reversibility of neurite reduction (N2a cells [2]; 24-hour incubation in the absence of ZaTa) | number of neurons with neurites (N2a cells [2]; 24-hour treatment) | in vivo inhibition of Abl (Abl) | in vivo inhibition of p70S6K (p70S6K) | inhibition of panel kinases [3] | inhibition of TrkB in cells (TrkB)
AKRVKGRTWTLCGTPEY [ZaTa] | not seen | dose-dependent decrease | dramatic morphological changes | reversible | significant reduction | weaker in vivo inhibition | potent in vivo inhibition | no significant inhibition | –
labeled ZaTa: ZaTa peptide labeled with a red fluorescent dye at its N-terminus ({red fluorescent dye}-AKRVKGRTWTLCGTPEY; reading uncertain) | – | – | – | – | – | – | – | – | did not cause inhibition
